In patent publication US20210156868A1, “COMPOSITIONS AND METHODS FOR DETECTING ALBUMIN” (Tournament BioVenture LLC, priority 2019, published 2021):
“Also recorded” adds a separate entry of the source.

Columns and labels:
HSA pseudo esterase = HSA pseudo esterase (Homo sapiens, UniProt P02768); assay: Michaelis-Menten kinetics of HSA pseudo esterase (FIG. 3); assay type: biochemical; settings: 14:0 NPS-PC as probe
albumin = albumin (Homo sapiens, UniProt P02768); assay: Effects of solvent and additives on pseudo-lipase activity of albumin (FIG. 13); assay type: biochemical
albumin, sequence (P02768 25-609): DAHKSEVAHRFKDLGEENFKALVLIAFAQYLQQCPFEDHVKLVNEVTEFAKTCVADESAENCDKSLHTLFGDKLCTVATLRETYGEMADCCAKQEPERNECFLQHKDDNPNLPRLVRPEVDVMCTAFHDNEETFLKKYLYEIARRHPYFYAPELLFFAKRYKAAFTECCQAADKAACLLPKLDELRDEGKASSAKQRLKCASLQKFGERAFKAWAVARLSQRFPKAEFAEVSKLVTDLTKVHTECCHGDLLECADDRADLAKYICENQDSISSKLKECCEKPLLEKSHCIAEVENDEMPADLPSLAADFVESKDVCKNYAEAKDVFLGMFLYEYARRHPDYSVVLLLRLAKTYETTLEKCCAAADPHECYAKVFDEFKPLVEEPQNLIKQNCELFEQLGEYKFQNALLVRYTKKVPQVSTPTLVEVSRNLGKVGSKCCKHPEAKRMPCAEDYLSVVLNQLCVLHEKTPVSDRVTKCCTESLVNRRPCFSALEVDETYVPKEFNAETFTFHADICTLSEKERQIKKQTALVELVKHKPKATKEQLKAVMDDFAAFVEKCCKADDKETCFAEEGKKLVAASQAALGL
From the text: Dimethyl sulfoxide (DMSO), EDTA and Tween-20 had been used to determine the tolerable concentration of organic solvent.

Ca^2+ dependent PLA2 = settings: 5 mM in the assay buffer
[1] = test system: non-albumin esterase activity (PLA2 activity in human serum, associated with LDL or HDL); assay: Inhibition of non-albumin esterase (PLA2) activity with 14:0 NPS-PC as probe (FIG. 4); assay type: biochemical; settings: for sensitivity of non-albumin (LDL/HDL, PLA2) esterase activity compared to pseudo esterase activity of albumin: human serum, 14:0 NPS-PC probe
Procedure: The reaction was started by the addition of 110 μl of TBS reaction buffer (10 mM Tris-HCl, 150 mM NaCl, pH 7.4) containing […] 14:0 NPS-PC and 5 mM EDTA to 20 μl of HSA solution in a well of a 96-well plate. The reactions were followed at wavelength 405 nm (absorbance) in a SPECTRAmax M5 plate reader.
As shown in EXAMPLE 1, using 14:0 NPS-PC as probe also identified non-albumin esterase activity, i.e. PLA2 activity in human serum, which is mainly associated with HDL and LDL. […] Pefabloc at 15-20 mM (final concentration) can eliminate all non-albumin esterase activity but maintain >90% of albumin esterase activity when assayed with 1.5 mM 14:0 NPS-PC at pH 7.4.

[2] = test system: non-HSA esterase activity associated with HDL; assay: Inactivation of HDL-associated esterase activity on incubation with Pefabloc SC (FIG. 5); assay type: biochemical, human; settings: 2 mM Pefabloc SC
[3] = test system: human serum non-HSA esterase activity; assay: Inactivation of non-HSA esterase activity in mix of 20 human sera (FIG. 6, FIG. 7); assay type: biochemical; settings: 1 mM Pefabloc SC, 24° C., hydrochloride
Procedure: When human serum was incubated with 1 mM Pefabloc, the non-HSA esterase activity can be abolished in about 10 minutes.

[4] = biological target: HSA pseudo esterase activity (Homo sapiens, UniProt P02768); settings: 2 mM Pefabloc SC incubation; HSA 44 mg/ml in TBS, pH 7.4; hydrochloride
HSA pseudo esterase activity, sequence (P02768 25-609): as above

Solubility in water = assay type: physicochemical

HSA pseudo esterase, sequence (P02768 25-609): as above

For `CCCCCCCCCCCCCC(=O)OC[C@H](COP(=O)([O-])OCC[N+](C)(C)C)OC(=O)CCC(=O)Oc1ccc([N+](=O)[O-])cc1` [14:0 NPS-PC, 1-myristoyl-2-(4-nitrophenylsuccinyl)-sn-glycero-3-phosphocholine], which “Km in the pseudo esterase reaction of HSA” value (HSA pseudo esterase) is on record?
Its value is “relative low Km”.

For `C[S+](C)[O-]` [DMSO, Dimethyl sulfoxide], which “effect on the assay of albumin” value (albumin) is on record?
Its value is “does not have effects”.

Which “activity of Ca^2+ dependent PLA2 towards 14:0 NPS-PC” value (Ca^2+ dependent PLA2) does the source give for `O=C(O)CN(CCN(CC(=O)O)CC(=O)O)CC(=O)O` [EDTA] here?
Its value is “suppresses”.

For `O=S(=O)(F)Cc1ccccc1` [PMSF, phenylmethylsulfonyl fluoride], which “sensitivity of non-albumin (LDL/HDL, PLA2) esterase activity compared to pseudo esterase activity of albumin” value [1] is on record?
Its value is “much more sensitive”.

Which results are given for `Cl.NCCc1ccc(S(=O)(=O)F)cc1` [Pefabloc SC, 4-(2-aminoethyl)benzenesulfonyl fluoride hydrochloride]?
sensitivity of non-albumin (LDL/HDL, PLA2) esterase activity compared to pseudo esterase activity of albumin [1]: much more sensitive; non-albumin esterase activity ([1]; inhibitor 15-20 mM final concentration, 1.5 mM 14:0 NPS-PC, pH 7.4): eliminate all; non-HSA esterase activity associated with HDL depleted ([2]; 6 hr of incubation, HDL 2.5 mg/ml of cholesterol): About 80%; incubation time to complete inactivation of HDL-associated esterase activity ([2]; purified HDL): 6 to 10 h; incubation time to complete inactivation of human serum non-HSA esterase activity [3]: about 15 min; incubation time to complete inactivation of human serum non-HSA esterase activity ([3]; listed as Pefabloc): about 10 min; inactivation of HSA pseudo esterase activity [4]: No inactivation; also recorded: no activity loss

For `CCN(CC)CCN(Cc1ccc(-c2ccc(C(F)(F)F)cc2)cc1)C(=O)Cn1c(SCc2ccc(F)cc2)nc(=O)c2c1CCC2` [darapladib], which solubility in water (Solubility in water) is on record?
The solubility in water was “insoluble in water”.
